{
  "source": "paper PMC7754465",
  "about": "“Multiparameter Kinetic Analysis for Covalent Fragment Optimization by Using Quantitative Irreversible Tethering (qIT)” (Chembiochem, 2020)",
  "target": "His-Cdk2(F80C,C177A,D145N) (Homo sapiens, UniProt P24941, C177A/D145N/F80C)",
  "assay": "qIT assay with His-Cdk2(F80C,C177A,D145N)",
  "type": "binding",
  "conditions": "acrylamide 69 0.5 mM, thiol 5 µM",
  "experimental": "site that is normally occupied by the adenosine core of ATP. Indeed, the methyl ester engages in a hydrogen-bonding interaction with the backbone amide of Leu83, mimicking the pyrimidine pharmacophore of ATP, while the acrylamide carbonyl itself is hydrogen bonded to the ε-amine of Lys32.\nNext the 57-Cdk2(F80C,C177A) conjugate was prepared and crystallised by heterogeneous microseeding in an analogous manner. This complex diffracted to 2.0 GS H Å […]\nAlthough acrylamide Cdk2(F80C,C177A,D145N) 57 could be O […]\nmodelled into the electron density map with a cov1.25 alent bond to Cys80, the ligand-binding mode was less clearly defined (Figure 72b). It is postulated that either the ligand binds in N […]\nmultiple unresolved modes or that the protein was not fully modified such that the ligand 69 […]\nclin A2 to form active holoenzymes. The holoenzymes were incubated with peptide substrate, ATP, NADH, PEP, LD and PK Tim e ( h) ! at 37 °C and the absorbance measured over time in clear 384-well plates. Kinase activity is determined from the gradient of Figure the absorbance over time (between 100084. Fluorescence data (normalised against DMSO –3000 s) and normalised relative to pCdk2(WT) = 100% and cyclin A2 only = 0% (n = control) from qIT assay for acrylamide […]\nglutathione (5 µM). Vertical error bars represent the standard deviation of fluorogenic thiol quantifications, performed in duplicate. […]",
  "data": [
    {"smiles": "C=CC(=O)N1CCN(CC)c2ccccc21", "note": "[compound 6]", "values": [
      {"measurement": "k, thiol Cdk2(F80C,C177A,D145N)", "result": 0.23, "unit": "h–1"}
    ]}
  ]
}
